The values below come from paper PMC4176448 (The Journal of Infectious Diseases, 2014).

For the experiment, the system named is influenza B virus. The arrangement: species or system human (patient). The following applies: human, in vivo, po.

With `CCOC(=O)C1=C[C@@H](OC(CC)CC)[C@H](NC(C)=O)[C@@H](N)C1` [Oseltamivir, oseltamivir], the “NPAs tested for influenza B virus after oseltamivir treatment” value is reported as “still positive”.
